{"source": "paper PMC7231190", "about": "“The Medium-Chain Fatty Acid Receptor GPR84 Mediates Myeloid Cell Infiltration Promoting Steatohepatitis and Fibrosis” (Journal of Clinical Medicine, 2020)", "key": {"mGPR84": {"target": "T1, mGPR84 (Mus musculus, UniProt Q8CIM5)", "T1 construct": "expressed in transfected cells; host or cells: CHO-K1", "T1 sequence (Q8CIM5 whole entry)": "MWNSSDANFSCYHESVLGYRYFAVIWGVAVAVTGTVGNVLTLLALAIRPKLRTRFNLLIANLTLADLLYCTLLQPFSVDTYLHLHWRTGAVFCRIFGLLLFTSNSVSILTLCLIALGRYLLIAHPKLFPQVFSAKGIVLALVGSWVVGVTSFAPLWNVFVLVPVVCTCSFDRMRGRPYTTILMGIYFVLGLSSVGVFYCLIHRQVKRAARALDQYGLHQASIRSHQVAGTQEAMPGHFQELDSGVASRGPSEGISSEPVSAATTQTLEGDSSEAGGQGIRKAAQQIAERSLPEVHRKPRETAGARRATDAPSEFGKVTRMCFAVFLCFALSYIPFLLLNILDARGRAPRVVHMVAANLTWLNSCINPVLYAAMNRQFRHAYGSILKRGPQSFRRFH", "assay": "cAMP HTRF assay, CHO-K1-mGPR84 cell membrane", "assay_type": "biochemical"}, "[1]": {"tested_on": "lung fibrosis mouse models", "set-up": "method as in earlier work", "conditions": "two mouse models, therapeutic setting; cited from earlier work"}, "[2]": {"tested_on": "experimental kidney as well as liver fibrosis", "set-up": "method as in PMID 29454750, PMID 30093459", "conditions": "cited from earlier work"}, "patients with NASH": {"tested_on": "patients with NASH", "set-up": "method as in PMID 28833331, PMID 31943293", "conditions": "early data from a clinical trial in patients with NASH; cited from earlier work"}, "human neutrophils": {"tested_on": "human neutrophils", "assay": "Human neutrophil chemotaxis towards GPR84 agonists", "assay_type": "cell-based", "conditions": "embelin 5 µM"}, "[3]": {"tested_on": "CD115+ monocytes from mouse bone marrow", "assay": "Transwell chemotaxis of murine bone-marrow monocytes", "assay_type": "cell-based", "conditions": "3-µM embelin, 2 h", "description": "(§1) Bone marrow of the untreated WT mice at 8 weeks of age was used to isolate the immune cells for transwell migration assays. A single cell suspension was achieved by flushing cold RPMI-1640 through the bones, and grinding the received bone marrow through a 70-µm cell strainer. After lysis of red blood cells by Pharmlyse (BD Biosciences, San Jose, CA, USA), 1 × 10^6 cells in RPMI-1640 were placed in the upper compartment of the 5-µm transwell migration chamber. Migration was analyzed towards stimulation with a 3-µM embelin, a surrogate GPR84 agonist, or a 100-µM myristic acid (an MCFA) dissolved in combination with bovine serum albumin (BSA) in the lower compartment. The chemotactic cytokines, 5 nM CCL2 or 1 nM CXCL1, were used as positive controls for monocyte or neutrophil migration, respectively. After 2 h of incubation at 37 °C, the cells in the lower compartment were analyzed by flow cytometry."}, "[4]": {"tested_on": "neutrophils from mouse bone marrow", "assay": "Transwell chemotaxis of murine bone-marrow neutrophils", "assay_type": "cell-based", "conditions": "3-µM embelin, 2 h", "description": "as §1"}, "[5]": {"tested_on": "C57BL6/J wildtype mice, acute CCl4 liver injury", "assay": "CCl4-induced acute liver injury in mice", "assay_type": "in vivo, mouse", "conditions": "36 h after single IP CCl4"}, "[6]": {"tested_on": "C57BL6/J wildtype mice, MCD diet", "assay": "MCD diet-induced steatohepatitis and fibrosis in mice", "assay_type": "in vivo, mouse", "conditions": "MCD diet 8 weeks, treatment last 4 weeks; GPR84 antagonists 30 mg/kg PO q.d., selonsertib 15 mg/kg PO b.i.d."}, "[7]": {"tested_on": "C57BL6/J wildtype mice, chronic CCl4", "assay": "CCl4-induced chronic liver injury / fibrosis in mice", "assay_type": "in vivo, mouse", "conditions": "CCl4 IP twice per week 8 weeks, treatment last 4 weeks; CpdA 30 mg/kg q.d., selonsertib 15 mg/kg b.i.d."}, "[8]": {"conditions": "GPR84 antagonists 30 mg/kg PO, selonsertib 15 mg/kg PO"}}, "note": "Where a name gives a salt, the structure may show the parent alone."}
{"smiles": "CCCCCCCCCC(=O)O", "note": "[Capric acid]", "values": [{"measurement": "EC80 of agonist in cAMP HTRF assay", "setting": "mGPR84", "result": "cAMP HTRF assay (IC50 nM) CHO-K1-mGPR84 cell membrane, Capric acid (EC80 = 61.7 µM)"}]}
{"smiles": "O=c1nc(OC[C@@H]2COCCO2)cc2n1CCc1cc(C#CC3CC3)ccc1-2", "note": "[GLPG1205]", "values": [{"measurement": "lung fibrosis", "setting": "[1]", "result": "reduced lung fibrosis"}]}
{"smiles": "CCCCCc1cccc(CC(=O)O)c1", "note": "[PBI-4050, 3-pentylbenzeneacetic acid sodium salt]", "values": [{"measurement": "experimental kidney and liver fibrosis", "setting": "[2]", "result": "reduced experimental kidney as well as liver fibrosis"}]}
{"smiles": "CCCCOCCOc1ccc(-c2ccc3c(c2)/C=C(/C(=O)Nc2ccc([S@@+]([O-])Cc4cncn4CCC)cc2)CCCN3CC(C)C)cc1", "note": "[cenicriviroc]", "values": [{"measurement": "antifibrotic activity", "setting": "patients with NASH", "result": "effective antifibrotic activity"}]}
{"smiles": "CCCCCCCCCCCC1=C(O)C(=O)C=C(O)C1=O", "note": "[embelin]", "values": [{"measurement": "induction of human neutrophil migration by agonist", "setting": "human neutrophils", "result": "strongly induced"}, {"measurement": "stimulation of mouse monocyte migration by agonist", "setting": "[3]", "result": "stimulated"}, {"measurement": "attraction of mouse neutrophils by agonist", "setting": "[4]", "result": "attracted"}]}
{"smiles": "Cc1cc(F)c(C(=O)Nc2cccc(-c3nncn3C(C)C)n2)cc1-n1cnc(C2CC2)c1", "note": "[selonsertib]", "values": [{"measurement": "extent of acute liver injury (necrotic areas on histology, serum ALT)", "setting": "[5]; GPR84 antagonists 30 mg/kg PO at 0 h, 24 h, selonsertib 15 mg/kg PO at 0, 12, 24 h", "result": "neither significantly modified"}, {"measurement": "MoMF infiltration (flow cytometry)", "setting": "[5]; [8]", "result": "but not selonsertib, significantly reduced"}, {"measurement": "hepatic macrophage accumulation (F4/80 immunohistochemistry)", "setting": "[5]; [8]", "result": "neither significantly modified"}, {"measurement": "hepatic neutrophil infiltration (flow cytometry)", "setting": "[5]; [8]", "result": "but not selonsertib, significantly reduced"}, {"measurement": "liver fibrosis (Sirius-Red-stained liver sections and hepatic hydroxyproline content)", "setting": "[6]", "result": "reduced"}, {"measurement": "liver fibrosis (Sirius-Red-staining and hepatic hydroxyproline content)", "setting": "[7]", "result": "markedly reduced"}, {"measurement": "neutrophils and liver lymphocytes", "setting": "[7]", "result": "largely unaltered"}, {"measurement": "numbers of hepatic macrophages, particularly MoMF", "setting": "[7]", "result": "lower numbers"}, {"measurement": "toxic injury according to histology or ALT levels", "setting": "[7]", "result": "unaffected"}]}
